From US10813931B2, “Methods and compositions relating to the treatment of cancer” (THE BRIGHAM AND WOMEN'S HOSPITAL, INC., priority 2013, dated 2020)

Key:
[1] = tested on: taxane-refractory breast cancer explant; assay: Human refractory breast cancer explant, immunohistochemistry; conditions: ex vivo 72 h, taxane-containing regimen or Doxil, N=7
Experimental: Anonymous human breast cancer tissues (N=7) from patients refractory to taxane-containing regimens were incubated ex vivo in autologous patient serum in the presence or absence of taxane-containing or liposomal doxorubicin (Doxil) regimens for 72 hours. Following fixation in formalin and paraffin embedding, tissue was processed by H&E to identify tumor cells and immunohistochemistry (IHC) was performed to identify protein expression. IHC scores were determined in a third party blinded fashion by multiplying the intensity of staining at the cellular level with the percentage of cells stained per field of view.
Fresh tumor tissues were collected from breast cancer patients immediately after surgical resection at HCG cancer hospital, Bangalore, India. The tumor samples were transported to the laboratory at 4° C., in appropriate transport buffer within 60 minutes post-resection, for ex-vivo studies and molecular and pathological evaluation. […] After 48 hrs of treatment, tumor cell viability was measured and release of soluble cleaved caspase-3 and caspase-8 were determined.
Human Tumor tissues were fixed in Phos stop (Roche) containing 4% buffered formalin and embedded in paraffin. […] Immunoreactivity was scored by intensity of staining (0, no staining, 1 weak; 2 moderate; 3 strong) and percentage of positive cells. By multiplying both values, a final score was calculated. […]

MDA-MB-231 (231) = assay: CD44 surface expression by FACS in 231 cells; assay type: cell-based, human; conditions: 4 hours post treatment, increasing doses
Experimental: MDA-MB-231, MDA-MB-468 were purchased from ATCC. For acute treatments, cells were plated at a density of 0.5-1×10^5 cells/ml and allowed to adhere for 24-48 hr. when cells reached ˜70% confluency they were treated with antitubulins at indicated concentrations for 4-24 hours and utilized for subsequent assays. To generate chemotherapy tolerant subset, cells were treated with indicated concentrations of chemotherapy (48). Following washes with PBS, adherent cells were trypsinized and re-plated at a density of 1.5-2×10^5 cells/ml and cultured in serum-containing medium. […]
Cells were cultured as indicated and fixed with 4% paraformaldehyde in PBS for 30 min at RT and blocked in 10% goat serum (v/v). Following PBS washes, cells were incubated with indicated antibodies for 60 minutes at room temperature or overnight at 4 C and analyzed by FACS (Accuri cyomteters Inc. Ann Arbor, Mich.). Cell cycle analyzed in propidium iodide solution following incubation in 70% Ethanol overnight at 4 C and following manufacturer protocol (Genscript USA Inc. Piscataway, N.J.). AnnexinV/PI was analyzed FACS following manufacturer protocol (BD, Ann Arbor Mich.). All FACS results were analyzed by FlowJo™ software following a rigorous doublet discrimination based on FSC:A vs. width as well as FSC:A vs. height (Tree Star Inc., Ashland Oreg.). […]

In the case of CC(=O)O[C@@]12CO[C@@H]1C[C@H](O)[C@@]1(C)C(=O)[C@H](O)C3=C(C)[C@@H](OC(=O)[C@H](O)[C@@H](NC(=O)OC(C)(C)C)c4ccccc4)C[C@@](O)([C@@H](OC(=O)c4ccccc4)[C@H]21)C3(C)C [DTX, docetaxel], the “CD44 expression (IHC)” value [1] is reported as “induced the over-expression of CD44” and the CD44 induction (MDA-MB-231 (231)) is reported as “dose-dependent manner”.
